Source: EP4560029A1, “METHOD FOR THE DIAGNOSIS OF ANEURYSM, AND INHIBITORS FOR USE IN THE PREVENTION OR TREATMENT OF ANEURYSM” (Fundacion Instituto De Investigacion Sanitaria Fundacion …, priority 2023, dated 2025)

What was measured:
shFbn1-VSMCs [1] = assay: ISRIB incubation of Fbn1-silenced primary VSMCs: qPCR; assay type: cell-based, murine; details: ISRIB incubation for 48h
Procedure: Isolation and culture of primary mouse VSMCs were previously described. Tissue was digested with a solution of collagenase and elastase (Worthington Biochem) until a single-cell suspension was obtained. All experiments with primary VSMCs were performed during passages 2-7. Lentiviral transduction was performed in VSMCs over 5 h at a multiplicity of infection = 3. The medium was then replaced with fresh DMEM supplemented with 10% FBS and cells were cultured for five more days, treated with NR for five more days and serum-starved for 16h. […]
The GFPT2 and GFP coding sequence was obtained from Origene. […] Transduction efficiency (GFP-expressing cells and Puromycin resistant-cells) and cell death (propidium iodide staining) were quantified by flow cytometry.
(§1) Aortas were extracted after perfusion with 5 ml saline solution, and the adventitia layer was discarded. […] The amount of target mRNA in samples was estimated by the 2-CT relative quantification method, using B2M, YWHAZ and PP1A for normalization. Fold ratios were calculated relative to mRNA expression levels from controls.
ISR is a decisive cell response pathway that controls translation and bases a protective response and drive a transcriptional program to maintain and to contribute to organismal fitness. […] First, the inventors evaluated the ISRIB (an ISR-inhibitor) in MFS in vitro. […]

Fbn1^C1039G/+ mice [2] = assay: ISRIB by osmotic minipumps in Marfan mouse model: aortic ultrasound, blood pressure; assay type: in vivo; details: 28 days, to normal levels
Procedure: (§2) Marfan mouse model which harbor a Fbn1^C1039G/+ allele (JAX stock #012885). Wild-type littermates were used as controls for Marfan mice. DON dissolved in saline, (Sigma-Aldrich), at 5 ng* kg^-1 min^-1 and ISRIB (MedChemExpress) at 10mg* kg^-1 min^-1 were infused using subcutaneous osmotic minipumps (Model 2004, Alzet Corp). NR (Novalix) was administered intraperitoneally at 1000 mg/kg in saline every other day. Mice were housed at the pathogen-free animal facility of the CNIC and CBMSO following the animal care standards of the institution. […]
(§3) Arterial blood pressure (BP) was measured by the mouse-tail cuff method using the automated BP-2000 Blood Pressure Analysis System (Visitech Systems, Apex, NC, USA). […] After training period, BP was measured one day before treatment to determine the baseline BP values in each mouse cohort. BP measurements were recorded in mice located in a tail-cuff restrainer over a warmed surface (37 °C). Fifteen consecutive systolic and diastolic BP measurements were made, and the last 10 readings per mouse were recorded and averaged. For in vivo ultrasound images, the aortic diameter was monitored in isoflurane-anesthetized mice (2% isoflurane) by highfrequency ultrasound with a VEVO 2100 echography device (VisualSonics, Toronto, Canada) at 30-micron resolution. Maximal internal aortic diameters were measured at diastole using VEVO 2100 software, version 1.5.0. […]

Fbn1^+/+ mice = assay: Glucosamine in drinking water to fuel HBP, wild-type mice: aortic ultrasound, tail-cuff blood pressure, aortic histology; assay type: in vivo, mouse
Procedure: (§4) Marfan mouse model which harbor a Fbn1^C1039G/+ allele (JAX stock #012885). Wild-type littermates were used as controls for Marfan mice. DON dissolved in saline, (Sigma-Aldrich), at 5 ng* kg^-1 min^-1 and ISRIB (MedChemExpress) at 10mg* kg^-1 min^-1 were infused using subcutaneous osmotic minipumps (Model 2004, Alzet Corp). NR (Novalix) was administered intraperitoneally at 1000 mg/kg in saline every other day. Mice were housed at the pathogen-free animal facility of the CNIC and CBMSO following the animal care standards of the institution. Animal procedures were approved by the CNIC and CBMSO-UAM Ethics Committee and the Madrid regional authorities and conformed with EU Directive 2010/63EU and Recommendation 2007/526/EC regarding the protection of animals used for experimental and other scientific purposes, enforced in Spanish law under Real Decreto 1201/2005.
(§5) Arterial blood pressure (BP) was measured by the mouse-tail cuff method using the automated BP-2000 Blood Pressure Analysis System (Visitech Systems, Apex, NC, USA). Mice were trained for BP measurements every day for five consecutive days. After training period, BP was measured one day before treatment to determine the baseline BP values in each mouse cohort. BP measurements were recorded in mice located in a tail-cuff restrainer over a warmed surface (37 °C). Fifteen consecutive systolic and diastolic BP measurements were made, and the last 10 readings per mouse were recorded and averaged. For in vivo ultrasound images, the aortic diameter was monitored in isoflurane-anesthetized mice (2% isoflurane) by highfrequency ultrasound with a VEVO 2100 echography device (VisualSonics, Toronto, Canada) at 30-micron resolution. Maximal internal aortic diameters were measured at diastole using VEVO 2100 software, version 1.5.0.
After euthanization by CO2 inhalation, mice were perfused with saline. […] Elastic lamina breaks, defined as interruptions in the elastic fibers, were counted in the entire medial layer of three consecutive cross-sections per mouse, using 4-16 mice per experiment, and the mean number of breaks was calculated. […]

Fbn1^C1039G/+ mice [3] = assay: Glucosamine in drinking water to fuel HBP, Marfan mouse model: aortic ultrasound, aortic histology; assay type: in vivo
Procedure: as §2, §3

shFbn1-VSMCs [4] = assay: DON incubation of Fbn1-silenced primary VSMCs: immunoblot, flow cytometry, qPCR; assay type: cell-based, murine
Procedure: Isolation and culture of primary mouse VSMCs were previously described. Tissue was digested with a solution of collagenase and elastase (Worthington Biochem) until a single-cell suspension was obtained. All experiments with primary VSMCs were performed during passages 2-7. Lentiviral transduction was performed in VSMCs over 5 h at a multiplicity of infection = 3. The medium was then replaced with fresh DMEM supplemented with 10% FBS and cells were cultured for five more days, treated with NR for five more days and serum-starved for 16h. The HEK-293T (CRL-1573) and Jurkat (Clone E6-1, TIB-152) cell lines, required for high-titer lentivirus production and lentivirus titration respectively, were purchased from ATCC. The experiments were performed during passages 5-10. All cells tested negative for Mycoplasma.
The GFPT2 and GFP coding sequence was obtained from Origene. Lentiviruses expressing shRNA targeting murine Fbnl, and control shRNA were purchased from Sigma-Aldrich. Pseudo-typed lentiviruses were produced by transient calcium phosphate transfection of HEK-293T cells and concentrated from culture supernatant by ultracentrifugation (2 hours at 128,000xg; Ultraclear Tubes; SW28 rotor and Optima L-100 XP Ultracentrifuge; Beckman). Viruses were suspended in cold sterile PBS and titrated by transduction of Jurkat cells for 48h. Transduction efficiency (GFP-expressing cells and Puromycin resistant-cells) and cell death (propidium iodide staining) were quantified by flow cytometry.
as §1, with “discarded. Liquid nitrogen frozen tissue was homogenized using a cold-mortar and an automatic bead homogenizer (MagNA Lyzer, Roche). Total RNA was isolated with Trizol (Life Technologies).” for “discarded.”, “controls. […]” for “controls.”

Fbn1^C1039G/+ mice [5] = assay: DON by osmotic minipumps in Marfan mouse model: aortic ultrasound, blood pressure, histology, immunoblot, qPCR, RNA-seq; assay type: in vivo
Procedure: as §4, §5
Aortas were extracted after perfusion with 5 ml saline solution, and the adventitia layer was discarded. Liquid nitrogen frozen tissue was homogenized using a cold-mortar and an automatic bead homogenizer (MagNA Lyzer, Roche). Total RNA was isolated with Trizol (Life Technologies). Total RNA (1 µg) was first digested with DNAse and reverse-transcribed with Maxima First Strand cDNA Synthesis Kit (ThermoFisher). For analysis of mtDNA levels, total DNA from cells and tissues was extracted with the SurePrep kit (Fisher Scientific) or Trizol respectively, according to the manufacture's guidelines. qPCR reactions were performed in triplicate with SYBR master mix (Promega), according to the manufacturer's guidelines. To examine probe specificity, we conducted a post-amplification melting-curve analysis. For each reaction, only one melting-temperature (Tm) peak was produced. The amount of target mRNA in samples was estimated by the 2-CT relative quantification method, using B2M, YWHAZ and PP1A for normalization. Fold ratios were calculated relative to mRNA expression levels from controls.
Aortas were extracted after perfusion of cold saline solution and the adventitia layer was discarded. Frozen tissue was homogenized, and total RNA was isolated with Trizol ([…]). RNA from Libraries were prepared according to the instructions of the Kit "NEBNext Ultra Directional RNA Library Prep kit for Illumina" (New England Biolabs), following the protocol "Poly(A) mRNA Magnetic Isolation Module". The input yield of total RNA to start the protocol was >300 ng quantified by an Agilent 2100 Bioanalyzer using a RNA 6000 nano LabChip kit. The obtained libraries were validated and quantified by an Agilent 2100 Bioanalyzer using a DNA7500 LabChip kit and an equimolecular pool of libraries was titrated by quantitative PCR using the "Kapa-SYBR FAST qPCR kit forLightCycler480" (Kapa BioSystems) and a reference standard for quantification. After processing on the Illumina HiSeq 2500 instrument, FastQ files were generated containing nucleotide data and quality scores for each position. RNA-seq reads were mapped to the Mus musculus reference genome, GRCm38.p6, using Hisat2 v2.1.0 software. […]

[6] = 24-weeks Fbn1^C1039G/+ mice, DON by osmotic minipumps, after 7 days of treatment
[7] = RNA-sequencing on aortas, same cohort as Fig. 3D

O=C(COc1ccc(Cl)cc1)N[C@H]1CC[C@H](NC(=O)COc2ccc(Cl)cc2)CC1 [ISRIB]
Atf4, Atf6 mRNA levels (shFbn1-VSMCs [1]): reduces
aortic diameter (Fbn1^C1039G/+ mice [2]): decreases
blood pressure (Fbn1^C1039G/+ mice [2]): decreases

N[C@H]1C(O)O[C@H](CO)[C@@H](O)[C@@H]1O (stereo partly shown) [Glucosamine]
histological features of CMD (Fbn1^+/+ mice; elastin fiber fragmentation and Alcian blue staining after 28 days of treatment): reproduced
aortic diameter (Fbn1^+/+ mice; glucosamine in drinking water (5%), 28 days, effect after 7 days of treatment): significantly increased
systolic blood pressure (BP) (Fbn1^+/+ mice; glucosamine in drinking water (5%), after 7 days of treatment): decreased
aortic architecture such as elastin fiber fragmentation and amorphous matrix accumulation (Fbn1^C1039G/+ mice [3]; after 28 days of treatment): worsen
aortic diameter (Fbn1^C1039G/+ mice [3]; glucosamine in drinking water (5%), compared with control Fbn1^C1039G/+ mice): increased

[N-]=[N+]=CC(=O)CC[C@H](N)C(=O)O [DON, 6-diazo-5-oxo-L-norleucine]
IRS signaling through Atf4, Atf6 protein and mRNA expression (shFbn1-VSMCs [4]; ShFbn1-VSMCs, DON for 48h): decreased
O-GlcNac (shFbn1-VSMCs [4]; shFbn1-VSMCs, DON 10nM, 48h, immunoblot and flow cytometry): efficiently reduced
mRNA levels of classical MFS genes such as Tgb1, Fgf2 growth factors, osteopontin (spp1) and colagen1 (Col1a1) (shFbn1-VSMCs [4]; shFbn1-VSMCs, DON incubation): decreased
Aortic dilation (Fbn1^C1039G/+ mice [5]; [6]): completely normalized
blood pressure (Fbn1^C1039G/+ mice [5]; [6]): completely normalized
O-GlcNac levels and WGA staining in aortic tissue (Fbn1^C1039G/+ mice [5]; DON treatment for 28 days): reduces
ISR (p-PERK, p-eIF2α, ATF4 staining and protein levels; Atf4, Atf6, Tgfb2 mRNA) in aortas (Fbn1^C1039G/+ mice [5]; MFS-mice, same cohort as Fig. 3D): inhibited
expression levels of genes related to ER-stress and ISR such as Atf4, Chop, Xbpl, Hsp90b1 and Atf4-dependent genes (Fbn1^C1039G/+ mice [5]; [7]): decreased
expression of conventional MFS-affected genes (TGFβ pathway and ECM-related proteins such as Tgfb3, Cnn2, Serpine1, Thbs1, Pdgfa, Acan, Vcan Sdc4) (Fbn1^C1039G/+ mice [5]; [7]): decreased
histologic features of aortic degeneration in MFS, such as medial thickening, elastic fiber fragmentation, GAG and PG deposition (Fbn1^C1039G/+ mice [5]; after 28 days of DON-treatment): restored
TGFB upstream regulator, activation Z-score (Fbn1^C1039G/+ mice [5]; ingenuity analysis of aortic RNA-seq, DON treated mice, p-value 2,5710^-11): -9,913
